In brackets after ≈: the same amount, converted by molar mass.
Columns and labels:
Type in all cases: functional
Staphylococcus aureus [1] = assay: Antibacterial activity against methicillin-resistant Staphylococcus aureus 519028 clinical isolate after 20 to 24 hrs by two-fold microdilution method
Staphylococcus aureus [2] = assay: Antibacterial activity against methicillin-resistant Staphylococcus aureus 12308 clinical isolate after 20 to 24 hrs by two-fold microdilution method
Staphylococcus aureus [3] = assay: Antibacterial activity against methicillin-resistant Staphylococcus aureus 912014 clinical isolate after 20 to 24 hrs by two-fold microdilution method
Staphylococcus aureus [4] = assay: Antibacterial activity against methicillin-resistant Staphylococcus aureus 1019240 clinical isolate after 20 to 24 hrs by two-fold microdilution method
Staphylococcus aureus [5] = assay: Antibacterial activity against methicillin-resistant Staphylococcus aureus 221014 clinical isolate after 20 to 24 hrs by two-fold microdilution method
Staphylococcus aureus [6] = assay: Antibacterial activity against methicillin-resistant Staphylococcus aureus 219236 clinical isolate after 20 to 24 hrs by two-fold microdilution method
Staphylococcus aureus [7] = assay: Antibacterial activity against methicillin-resistant Staphylococcus aureus 111423 clinical isolate after 20 to 24 hrs by two-fold microdilution method
Staphylococcus aureus [8] = assay: Antibacterial activity against methicillin-resistant Staphylococcus aureus 130031 clinical isolate after 20 to 24 hrs by two-fold microdilution method
Staphylococcus aureus [9] = assay: Antibacterial activity against methicillin-resistant Staphylococcus aureus 304243 clinical isolate after 20 to 24 hrs by two-fold microdilution method
Staphylococcus aureus [10] = assay: Antibacterial activity against methicillin-resistant Staphylococcus aureus 118038 clinical isolate after 20 to 24 hrs by two-fold microdilution method
Staphylococcus aureus [11] = assay: Antibacterial activity against methicillin-resistant Staphylococcus aureus 1207026 clinical isolate after 20 to 24 hrs by two-fold microdilution method
Staphylococcus aureus [12] = assay: Antibacterial activity against methicillin-resistant Staphylococcus aureus 814039 clinical isolate after 20 to 24 hrs by two-fold microdilution method
Staphylococcus aureus [13] = assay: Antibacterial activity against methicillin-resistant Staphylococcus aureus 1108204 clinical isolate after 20 to 24 hrs by two-fold microdilution method
Staphylococcus aureus [14] = assay: Antibacterial activity against methicillin-resistant Staphylococcus aureus 316031 clinical isolate after 20 to 24 hrs by two-fold microdilution method
Staphylococcus aureus [15] = assay: Antibacterial activity against methicillin-resistant Staphylococcus aureus 1023043 clinical isolate after 20 to 24 hrs by two-fold microdilution method
Staphylococcus aureus [16] = assay: Antibacterial activity against methicillin-resistant Staphylococcus aureus 625032 clinical isolate after 20 to 24 hrs by two-fold microdilution method
Staphylococcus aureus [17] = assay: Potency index, ratio of vancomycin MIC to test compound MIC for […] Staphylococcus aureus ATCC 25923
Staphylococcus aureus [18] = assay: Potency index, ratio of vancomycin MIC90 to test compound MIC90 for methicillin-resistant Staphylococcus aureus
Staphylococcus aureus [19] = assay: Potency index, ratio of vancomycin MIC50 to test compound MIC50 for methicillin-resistant Staphylococcus aureus

Row | Compound | MIC (Staphylococcus aureus [1]) [µg/mL] | MIC (Staphylococcus aureus [2]) [µg/mL] | MIC (Staphylococcus aureus [3]) [µg/mL] | MIC (Staphylococcus aureus [4]) [µg/mL] | MIC (Staphylococcus aureus [5]) [µg/mL] | MIC (Staphylococcus aureus [6]) [µg/mL] | MIC (Staphylococcus aureus [7]) [µg/mL] | MIC (Staphylococcus aureus [8]) [µg/mL] | MIC (Staphylococcus aureus [9]) [µg/mL] | MIC (Staphylococcus aureus [10]) [µg/mL] | MIC (Staphylococcus aureus [11]) [µg/mL] | MIC (Staphylococcus aureus [12]) [µg/mL] | MIC (Staphylococcus aureus [13]) [µg/mL] | MIC (Staphylococcus aureus [14]) [µg/mL] | MIC (Staphylococcus aureus [15]) [µg/mL] | MIC (Staphylococcus aureus [16]) [µg/mL] | Ratio (Staphylococcus aureus [17]) | Ratio (Staphylococcus aureus [18]) | Ratio (Staphylococcus aureus [19])
1 | O=C1c2cccnc2C(=O)c2c1c(C(=O)OCCCCN1CCOCC1)c1ccc(Br)cn21 | 0.5 (≈ 0.976 µM) | 0.25 (≈ 0.488 µM) | 0.5 (≈ 0.976 µM) | 1 (≈ 1.95 µM) | 1 (≈ 1.95 µM) | 0.063 (≈ 0.123 µM) | 8 (≈ 15.6 µM) | 1 (≈ 1.95 µM) | 0.125 (≈ 0.244 µM) | 0.5 (≈ 0.976 µM) | 0.5 (≈ 0.976 µM) | 0.25 (≈ 0.488 µM) | 0.5 (≈ 0.976 µM) | 0.5 (≈ 0.976 µM) | 0.25 (≈ 0.488 µM) | 0.5 (≈ 0.976 µM) |  |  | 
2 | O=C1c2cccnc2C(=O)c2c1c(C(=O)OCCCCCN1CCOCC1)c1ccc(Br)cn21 | ≤ 0.0078 | ≤ 0.0078 | 0.063 (≈ 0.12 µM) | 0.031 (≈ 0.0589 µM) | 0.031 (≈ 0.0589 µM) | 0.031 (≈ 0.0589 µM) | 16 (≈ 30.4 µM) | 0.063 (≈ 0.12 µM) | 0.031 (≈ 0.0589 µM) | ≤ 0.0078 | ≤ 0.0078 | 0.125 (≈ 0.237 µM) | 0.25 (≈ 0.475 µM) | 0.031 (≈ 0.0589 µM) | 0.031 (≈ 0.0589 µM) | 0.063 (≈ 0.12 µM) |  |  | 
3 | CN(C)CCCCCOC(=O)c1c2c(n3cc(Br)ccc13)C(=O)c1ncccc1C2=O | 0.125 (≈ 0.258 µM) | 0.125 (≈ 0.258 µM) | 0.5 (≈ 1.03 µM) | 0.5 (≈ 1.03 µM) | 0.5 (≈ 1.03 µM) | 0.125 (≈ 0.258 µM) | 2 (≈ 4.13 µM) | 0.5 (≈ 1.03 µM) | 0.25 (≈ 0.516 µM) | 0.25 (≈ 0.516 µM) | 0.125 (≈ 0.258 µM) | 0.5 (≈ 1.03 µM) | 0.125 (≈ 0.258 µM) | 0.5 (≈ 1.03 µM) | 0.25 (≈ 0.516 µM) | 0.125 (≈ 0.258 µM) | 256 |  | 
4 | CN1CCN(CCCCCCOC(=O)c2c3c(n4cc(Br)ccc24)C(=O)c2ncccc2C3=O)CC1 | 0.125 (≈ 0.226 µM) | 0.063 (≈ 0.114 µM) | 0.031 (≈ 0.056 µM) | 0.25 (≈ 0.452 µM) | 0.125 (≈ 0.226 µM) | 0.063 (≈ 0.114 µM) | 16 (≈ 28.9 µM) | 0.25 (≈ 0.452 µM) | 0.25 (≈ 0.452 µM) | 0.25 (≈ 0.452 µM) | 0.063 (≈ 0.114 µM) | 0.5 (≈ 0.903 µM) | 0.5 (≈ 0.903 µM) | 0.25 (≈ 0.452 µM) | 0.125 (≈ 0.226 µM) | 0.125 (≈ 0.226 µM) | 256 |  | 
5 | O=C1c2cccnc2C(=O)c2c1c(C(=O)OCCCCCCN1CCCCC1)c1ccc(Br)cn21 | 0.125 (≈ 0.232 µM) | 0.063 (≈ 0.117 µM) | 0.063 (≈ 0.117 µM) | 0.125 (≈ 0.232 µM) | 0.125 (≈ 0.232 µM) | ≤ 0.0078 | > 16 | 0.125 (≈ 0.232 µM) | 0.016 (≈ 0.0297 µM) | 0.063 (≈ 0.117 µM) | 0.063 (≈ 0.117 µM) | 0.25 (≈ 0.464 µM) | 0.063 (≈ 0.117 µM) | 0.125 (≈ 0.232 µM) | 0.125 (≈ 0.232 µM) | 0.25 (≈ 0.464 µM) |  | 16 | 16
6 | O=C1c2cccnc2C(=O)c2c1c(C(=O)OCCCCCCN1CCOCC1)c1ccc(Br)cn21 | ≤ 0.0078 | ≤ 0.0078 | ≤ 0.0078 | ≤ 0.0078 | ≤ 0.0078 | ≤ 0.0078 | 16 (≈ 29.6 µM) | ≤ 0.0078 | 0.031 (≈ 0.0574 µM) | ≤ 0.0078 | ≤ 0.0078 | ≤ 0.0078 | ≤ 0.0078 | ≤ 0.0078 | ≤ 0.0078 | ≤ 0.0078 | 256 |  | 
